Assay results from patent US11701345B2, “Car activator agents for cyclophosphamide-based treatments of cancer” (UNIVERSITY OF MARYLAND, BALTIMORE, priority 2017, dated 2023).
Entries after “also recorded” stand apart in the source; their conditions may differ.

Experiments:
CYP2B6 = test: Induction of CYP2B6 vs CYP3A4 mRNA (RT-PCR) and protein (Western blot) in human primary hepatocytes; type: cell-based; settings: for hCAR activation with preferred expression of CYP2B6 protein: FIGS. 3B-3D
Method: HPHs were obtained from Bioreclamation, IVT. Hepatocytes with viability over 90% were seeded at 1.5×10^6 or 7.5×10^5 cells per well in 6- or 12-well collagen-coated plates. After 4 hours of attachment, cells were overlaid with Matrigel (0.25 mg/mL) in serum-free Williams E medium to form the sandwich culture. Following incubation for 36 hours, HPH were treated with DMSO (0.1%) or hCAR activator (i.e. CITCO or DL 5016) (1 mmol/L) for 24 or 72 hours for mRNA and protein detection, respectively. In separate experiments, wild-type (WT) and CAR-knockout (KO) HepaRG cells obtained from Sigma-Aldrich were cultured in 6- or 12-well collagen-coated plates. Cells were further treated with DMSO or hCAR activator.
Total RNA from HPH and lymphoma cells was isolated with TRizol Reagent (Life Technologies) and reverse transcribed using a High Capacity cDNA Archive kit (Applied Biosystems) following the manufacturers' instructions. mRNA expression of CYP2B6, CYP3A4, was normalized against that of GAPDH. Real-time PCR assays were performed in 96-well optical plates on a StepOnePlus Real-Time PCR System with SYBR Green PCR Master Mix (Applied Biosystems). The primer sequences used for real-time PCR analyses included: CYP2B6: 50-[…]-30 and 50-CCTTCACCAAGACAAATC-CGC-30; CYP3A4: 50-[…]-30 and 50[…]-30. Fold induction of genes over control was determined as 2DDCt, where DCt is representative of the cycle threshold number difference between the target gene and GAPDH and DDCt represents the relative change in the intergroup variations.
(§1) Homogenate proteins from treated HPH, H9c2 or HepaRG cells were resolved on NuPAGE Novex Bis-Tris 4% to 12% gels (Life Technologies) and electrophoretically transferred onto immobilon-P polyvinylidene difluoride membranes. Membranes were incubated with specific antibodies against human CAR (Perseus Proteomics), cleaved caspase-3 (Cell Signaling Technology), or g-H2AX (Millipore), diluted 1:1,000, 1:1,000, and 1:400, respectively. b-Actin was used to normalize protein loading. Following incubation with horseradish peroxidase goat antimouse or anti-rabbit IgG antibody, membranes were developed using SuperSignal West Pico Chemiluminescent Substrate (Thermo Scientific). Western blot signals were quantified by densitometry using ImageJ software from the National Institutes of Health.
The human primary hepatocytes from human donor were treated with vehicle control (0.1% DMSO) or DL5016 at a concentration ranging from 0.1 μM to 1 μM for 24 h and 72 h. The expression mRNA for CYP2B6 and CYP3A4 and CYP2B6 and CYP3A4 protein were analyzed at the time point of 24 h and 72 h respectively.

hCAR = target: T1, hCAR (Homo sapiens, UniProt Q14994, INS274A); test: hCAR-mediated CYP2B6 luciferase reporter gene activation in transfected HepG2 cells; type: cell-based; settings: for activation of hCAR: concentrations under 1 μm, FIGS. 3E-3J
T1 construct: expressed in transfected cells; host or cells: HepG2
T1 sequence (Q14994 with tags, fused parts or gaps isoform Q14994-2 INS270A): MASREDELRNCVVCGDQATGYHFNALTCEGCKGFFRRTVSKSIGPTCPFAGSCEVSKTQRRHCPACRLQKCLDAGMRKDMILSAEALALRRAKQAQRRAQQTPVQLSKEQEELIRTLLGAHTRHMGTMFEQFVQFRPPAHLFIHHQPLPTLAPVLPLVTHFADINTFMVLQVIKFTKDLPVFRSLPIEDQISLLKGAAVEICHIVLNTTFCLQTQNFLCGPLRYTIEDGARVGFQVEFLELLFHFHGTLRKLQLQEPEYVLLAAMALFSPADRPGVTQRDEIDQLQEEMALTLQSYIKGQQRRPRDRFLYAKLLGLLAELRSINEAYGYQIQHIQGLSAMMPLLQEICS
T1 sequence (P19793 1-462 partner): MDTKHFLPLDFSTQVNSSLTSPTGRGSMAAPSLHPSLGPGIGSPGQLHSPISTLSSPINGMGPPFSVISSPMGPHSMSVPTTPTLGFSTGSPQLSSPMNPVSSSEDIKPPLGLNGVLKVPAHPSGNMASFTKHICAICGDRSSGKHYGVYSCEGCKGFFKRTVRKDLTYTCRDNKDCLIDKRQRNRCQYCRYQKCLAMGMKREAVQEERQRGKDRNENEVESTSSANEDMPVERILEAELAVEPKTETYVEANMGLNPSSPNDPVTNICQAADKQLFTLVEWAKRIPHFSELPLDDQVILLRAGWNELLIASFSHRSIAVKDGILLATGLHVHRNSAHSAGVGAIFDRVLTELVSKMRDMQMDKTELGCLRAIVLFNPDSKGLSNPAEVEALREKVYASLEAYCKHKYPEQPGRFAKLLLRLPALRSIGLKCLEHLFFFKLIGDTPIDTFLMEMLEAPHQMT
Method: (§2) Using CITCO as a model compound, the biological activity of CITCO has been evaluated for its selective activation of hCAR vs. hPXR in luciferase reporter assays, and its effects on CYP2B6 expression at both mRNA and protein levels in cultured human primary hepatocytes (See FIGS. 5A-B).
HepG2 cells were transfected with hCAR1+A expression plasmid and CYP2B6-2.2k firely luciferase reporter construct. Transfected cells were treated with vehicle control (0.1% DMSO), CITCO and DL5016 at indicated concentrations for 24 h, CYP2B6 reported activities were normalized as folds over vehicle control and are expressed as means±SD (n=3). * p<0.05; ***, p<0.001. The results for the effects of DL 5016 compared with CITCO on hCAR-mediated CYP2B6 reported gene activation are shown in FIG. 2.

hPXR = target: T2, hPXR (Homo sapiens, UniProt O75469); test: hPXR luciferase reporter assay; type: cell-based; settings: concentrations under 1 μm; FIGS. 3E-3J
T2 sequence (O75469 1-434): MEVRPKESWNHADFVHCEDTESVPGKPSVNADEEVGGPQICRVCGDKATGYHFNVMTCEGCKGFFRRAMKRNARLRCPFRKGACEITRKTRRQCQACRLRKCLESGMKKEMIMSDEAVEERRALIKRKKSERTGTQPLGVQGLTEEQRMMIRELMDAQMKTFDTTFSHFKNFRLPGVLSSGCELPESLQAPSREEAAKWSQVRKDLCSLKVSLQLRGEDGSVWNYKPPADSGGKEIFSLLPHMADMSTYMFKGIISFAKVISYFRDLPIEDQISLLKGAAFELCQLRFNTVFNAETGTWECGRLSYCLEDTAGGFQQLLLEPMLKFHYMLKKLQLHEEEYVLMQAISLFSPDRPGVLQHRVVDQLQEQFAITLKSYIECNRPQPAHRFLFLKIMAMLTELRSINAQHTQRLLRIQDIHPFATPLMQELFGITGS
Text: as §2

SU-DHL-4 cells = test: Hepatocyte/lymphoma co-culture with CHOP: cancer cell death, viability, caspase-3; type: cell-based, human; settings: hepatocyte/lymphoma co-culture, added to CHOP, FIGS. 10B-C
Method: HPH were cultured in collagen-coated 12-well plates and pretreated with vehicle control (0.1% DMSO) or hCAR activator (1 mmol/L) for 24 hours. The wells were then separated with […] polycarbonate membrane inserts (Sigma-Aldrich). A total of 0.5×10^6 SU-DHL-4 cells suspended in supplemented Williams' Medium E were transferred into the insert chamber with a final volume of 2 mL/well. In separate coculture experiments, HPH were replaced with either WT or CAR-KO HepaRG cells. The cocultures were exposed to designated concentrations of the chemotherapy drugs in CHOP in the presence or absence of hCAR activator for various time intervals, as indicated.
as §1
HPHs and H9c2 rat cardiomyocytes were seeded at 7.5×10^4 cells per well in 96-well plates. HPH were cultured for 24 hours before treatment with hCAR activator (1 mmol/L) or vehicle control (0.1% DMSO), followed by treatment with the chemotherapy drugs included in CHOP at a range of concentrations. Culture medium containing CHOP drugs and metabolites was exchanged between the cell types at pre-determined time points. A typical 3-[4,5-dimethylthiazol-2-yl]-2,5 diphenyl tetrazolium bromide (MTT) assay was carried out as described previously (21). Cell viability was expressed as the percentage of vehicle control (0.1% DMSO). Cocultured cells were assembled and treated as described above. The viability of the SU-DHL-4 cells was determined at selected time points with a Cellometer Auto T4 (Nexcelom Biosciences) using trypan blue exclusion.

Aqueous solubility = type: physicochemical

Clc1ccc(-c2nc3sccn3c2CNCCc2cccc(Cl)c2)cc1 [DL4094, 2-(3-chlorophenyl)-N-((6-(4-chlorophenyl)imidazo[2,1-b]thiazol-5-yl)methyl)ethan-1-amine]
hCAR activation with preferred expression of CYP2B6 protein (CYP2B6): activate hCAR resulted preferred expression of CYP2B6 protein

Cl.Clc1ccc(-c2nc3sccn3c2CNCCc2ccc(Cl)c(Cl)c2)cc1 [DL4072, N-((6-(4-chlorophenyl)imidazo[2,1-b]thiazol-5-yl)methyl)-2-(3,4-dichlorophenyl)ethan-l-amine hydrochloride]
activation of hCAR (hCAR): activated hCAR | activation of hPXR (hPXR): not hPXR | hCAR activation with preferred expression of CYP2B6 protein (CYP2B6): activate hCAR resulted preferred expression of CYP2B6 protein

Clc1ccc(-c2nc3sccn3c2/C=N/CCc2ccc(Cl)c(Cl)c2)cc1 [DL4059, (E)-1-(6-(4-chlorophenyl)imidazo[2,1-b]thiazol-5-yl)-N-(3,4-dichlorophenethyl)methanimine]
activation of hCAR (hCAR): low activity | activation of hPXR (hPXR): low activity | hCAR activation with preferred expression of CYP2B6 protein (CYP2B6): activate hCAR resulted preferred expression of CYP2B6 protein

Clc1ccc(-c2nc3sccn3c2CNCCc2ccc(Br)cc2)cc1 [DL 4100, 2-(4-bromophenyl)-N-((6-(4-chlorophenyl)imidazo[2,1-b]thiazol-5-yl)methyl)ethan-1-amine]
hCAR activation with preferred expression of CYP2B6 protein (CYP2B6): activate hCAR resulted preferred expression of CYP2B6 protein

Clc1ccc(-c2nc3sccn3c2CNCCc2ccc(Cl)c(Cl)c2)cc1 [DL4097, N-((6-(4-chlorophenyl)imidazo[2,1-b]thiazol-5-yl)methyl)-2-(3,4-dichlorophenyl)ethan-1-amine]
hCAR activation with preferred expression of CYP2B6 protein (CYP2B6): activate hCAR resulted preferred expression of CYP2B6 protein

Clc1ccc(-c2nc3sccn3c2CNCCc2cccc(Br)c2)cc1 [DL4104, 2-(3-bromophenyl)-N-((6-(4-chlorophenyl)imidazo[2,1-b]thiazol-5-yl)methyl)ethan-1-amine]
hCAR activation with preferred expression of CYP2B6 protein (CYP2B6): activate hCAR resulted preferred expression of CYP2B6 protein

c1ccc2c(c1)CC(NCc1c(-c3ccc4ccccc4c3)nc3occn13)C2 [DL5016, N-((6-(naphthalen-2-yl)imidazo[2,1-b]oxazol-5-yl)methyl)-2,3-dihydro-1H-inden-2-amine]
hCAR activity (CYP2B6 reporter gene activation) compared with CITCO (hCAR; HepG2 cells, hCAR1+A plasmid, CYP2B6-2.2k luciferase reporter, 24 h, FIG. 2): higher hCAR-inducing activity than CITCO; also recorded: more effective than CITCO | induction of CYP2B6 over CYP3A4 at mRNA and protein levels (CYP2B6; human primary hepatocytes, 0.1-1 μM, 24 h (mRNA) and 72 h (protein), FIG. 3A): potent and selective induction of CYP2B6 over CYP3A4 | effect on CHOP anticancer activity (cancer cell death) (SU-DHL-4 cells): potentiates the beneficial effects of CHOP in causing cancer cell death; also recorded: clearly enhanced the regimen's anticancer activity | effect on CHOP anticancer activity (cancer cell death) (SU-DHL-4 cells; listed as DL 5016): potentiate the beneficial effects of CHOP in causing cancer cell death | aqueous solubility compared with CITCO (Aqueous solubility): improved aqueous solubility

Clc1ccc(-c2nc3sccn3c2CNCCc2ccc(Cl)c(Br)c2)cc1 [DL 4102, 2-(3-bromo-4-chlorophenyl)-N-((6-(4-chlorophenyl)imidazo[2,1-b]thiazol-5-yl)methyl)ethan-1-amine]
hCAR activation with preferred expression of CYP2B6 protein (CYP2B6): activate hCAR resulted preferred expression of CYP2B6 protein

FC(F)(F)c1ccc(CCNCc2c(-c3ccc(Cl)cc3)nc3sccn23)cc1Cl [DL4103, 2-(3-chloro-4-(trifluoromethyl)phenyl)-N-((6-(4-chlorophenyl)imidazo[2,1-b]thiazol-5-yl)methyl)ethan-1-amine]
hCAR activation with preferred expression of CYP2B6 protein (CYP2B6): activate hCAR resulted preferred expression of CYP2B6 protein

Clc1ccc(CCNCc2c(-c3ccc(Cl)cc3)nc3sccn23)cc1 [DL4095, 2-(4-chlorophenyl)-N-((6-(4-chlorophenyl)imidazo[2,1-b]thiazol-5-yl)methyl)ethan-1-amine]
hCAR activation with preferred expression of CYP2B6 protein (CYP2B6): activate hCAR resulted preferred expression of CYP2B6 protein
